Assay results reported in patent publication US20030190357A1, “Compositions for delivery of a cortisol antagonist” (priority 2000, published 2003).

Test: solubility of ketoconazole in oleic acid
Format: physicochemical
Conditions: ambient room temperature, 48 h
Protocol: The solubility of ketoconazole in oleic acid was assessed at ambient room temperature using the method described in Example 1. Samples containing 5, 10, 15 and 33 wt. % of ketoconazole were mixed with oleic acid and the appearance of undissolved ketoconazole was investigated after 24 and 48 h. After 24 hours samples containing 5 wt. % ketoconazole were completely dissolved and after 48 h samples containing 10 wt. % of ketoconazole were completely homogenous and all ketoconazole was dissolved. Thus the solubility of ketoconazole in oleic acid is estimated to be about 10 wt. %.

Question: For `CC(=O)N1CCN(c2ccc(OCC3COC(Cn4ccnc4)(c4ccc(Cl)cc4Cl)O3)cc2)CC1` (stereo not shown) [ketoconazole, Ketoconazole], which “solubility of ketoconazole in oleic acid” value is on record?
Answer: about 10 wt. %
